Source: patent publication US20090258840A1, “METHOD AND COMPOSITIONS FOR TREATING HEMATOLOGICAL MALIGNANCIES” (Gilead Sciences, Inc., priority 2006, published 2009)
Read-outs that look alike come from different tables or passages of the source.

Columns and labels:
[1] = test system: PHA-blast (human T-cells); test: Anti-proliferation in human PHA-lymphoblasts (BrdU/XTT); format: cell-based; conditions: read-out: Anti-Proliferation EC50
Daudi (B-lymphoid) = test: Anti-proliferation in Daudi cells; format: cell-based, human; conditions: 3 days incubation
Description: (§1) Compounds were tested using human and canine lymphoblasts (stimulated with a T-cell mitogen phytohaemagglutinin (PHA) or a B-cell mitogen pokeweed mitogen (PWM)), two T-lymphoid cell lines derived from patients with acute lymphocytic leukemia (CEM and Molt-4), two myeloid cell lines derived from patients with acute myelogenous leukemia (KG-1 and HL-60), two B-lymphoid cell lines derived from Burkitt's lymphoma (Daudi and Raji), a B-lymphoid cell line from non-Hodgkin's lymphoma (RL), a T-lymphoid cell line from cutaneous T-lymphoma (PM-1), and a monocytic cell line from histiocytic lymphoma (U937). Lymphoblasts (150,000 cells per microtiter well) and leukemia/lymphoma cell lines (30,000 cells per well) were incubated with 5-fold serial dilutions of compounds for 3 days.

Raji (B-lymphoid) = test: Anti-proliferation in Raji cells; format: cell-based, human; conditions: 3 days incubation
Description: as §1

KG-1 (Myeloid) = test: Anti-proliferation in KG-1 cells; format: cell-based, human; conditions: read-out: Anti-Proliferation EC50
Description: as §1

U937 (Monocytic) = test: Anti-proliferation in U937 cells; format: cell-based, human; conditions: read-out: Anti-Proliferation EC50
RL (B-lymphoid) = test: Anti-proliferation in RL cells; format: cell-based; conditions: Homo sapiens, 72 h, 3 days incubation
Description: as §1

HL-60 (Myeloid) = test: Anti-proliferation in HL-60 cells; format: cell-based, human; conditions: read-out: Anti-Proliferation EC50
Description: as §1

PM-1 (T-lymphoid) = test: Anti-proliferation in PM-1 cells; format: cell-based, human; conditions: read-out: Anti-Proliferation EC50
Description: as §1

Molt 4 (T-lymphoid) = test: Anti-proliferation in Molt 4 cells; format: cell-based, human; conditions: read-out: Anti-Proliferation EC50
Description: as §1

CEM (T-lymphoid) = test: Anti-proliferation in CEM cells; format: cell-based, human; conditions: read-out: Anti-Proliferation EC50
Description: as §1

[2] = dog, in vivo
Description: • Dogs were administered various prodrugs of cpr-PMEDAP as 0.2 mg/kg 30 minute IV infusions. […] Alanine was the L isomer. • Blood was collected into potassium EDTA and separated by centrifugation. Primary blood mononuclear cells (PBMCs) were collected using CPT tubes (sodium citrate). • For analysis, plasma samples were precipitated by addition of 100 μL acetonitrile containing internal standards (D4AP and TDF) to 100 μL of plasma for prodrug analysis. After protein precipitation by centrifugation, 100 μL was transferred into another tube to be dried and then reconstituted in 100 μL water with 0.2% formic acid. An aliquot of 20 μL was injected onto the column for LC/MS/MS analysis. Analysis was done using a 150×2.0 mm, 4 μm Synergi Fusion-RP 80A column (Phenomenex) and a multistage linear gradient from 0.5 to 99% acetonitrile in the presence of 0.2% formic acid at 0.25 mL/min. Analytes were detected using a Sciex API-4000 mass spectrometer using electrospray ionization in positive MRM mode. […] Separate aliquots of cells from each time point resuspended in 100% serum were used to establish the cell quantities in each sample. Cell samples were normalized to 15×10^6 cells per sample. […] 20 μL was injected for LC/MS/MS analysis using a 50×2.0 mm, 4 μm Synergi Hydro-RP 80A column (Phenomenex) and a multistage linear gradient from 0 to 95% acetonitrile in the presence of 0.2% formic acid at 1.0 mL/min. Analytes were detected using a Sciex API-4000 mass spectrometer using electrospray ionization in positive MRM mode. • After drying, samples for dephosphorylation were treated with 1 U of calf intestinal phosphatase (alkaline phosphotase, Sigma) for 2 h in manufacturer provided buffer. Samples were then adjusted to 60% acetonitrile dried and resuspended in 60% acetonitrile containing internal standards (TDF and D4AP) and analyzed for cpr-PMEDAP as described for direct PBMC analysis.

[3] = test system: PWM-blast (human B-cells); test: Anti-proliferation in human PWM-lymphoblasts (BrdU/XTT); format: cell-based; conditions: B-cell, 72 h, 3 days incubation
[4] = test system: PWM-blast (canine B-cells); test: Anti-proliferation in canine PWM-lymphoblasts (BrdU/XTT); format: cell-based; conditions: Canis lupus familiaris, B-cell, 72 h, 3 days incubation
[5] = test system: PHA-blast (canine T-cells); test: Anti-proliferation in canine PHA-lymphoblasts (BrdU/XTT); format: cell-based; conditions: Canis lupus familiaris, T-cell, 72 h, 3 days incubation
[6] = test system: lymphoblasts and leukemia/lymphoma cell lines; test: Anti-proliferation, EC50 range over the cell panel; format: cell-based; conditions: range over a variety of lymphoblasts and leukemia/lymphoma cell lines
Description: A variety of compounds that are used for treatment of hematologic malignancies were also tested, including a DNA polymerase inhibitor (ara-C), DNA polymerase/ribonucleotide reductase inhibitors (cladribine, clofarabine, fludarabine, gemcitabine), an adenosine deaminase inhibitor (deoxycoformycin), a DNA methylation inhibitor (decitabine), a […] (doxorubicin), and a mitosis inhibitor (vincristine). All compounds, with the exception of doxorubicin and vincristine, are nucleoside analogs; ara-C, gemcitabine, and decitabine are cytosine analogs and the rest are adenosine analogs. cpr-PMEDAP and PMEG can be considered adenosine and guanosine analogs, respectively. Compounds were tested using human and canine lymphoblasts (stimulated with a T-cell mitogen phytohaemagglutinin (PHA) or a B-cell mitogen pokeweed mitogen (PWM)), two T-lymphoid cell lines derived from patients with acute lymphocytic leukemia (CEM and Molt-4), two myeloid cell lines derived from patients with acute myelogenous leukemia (KG-1 and HL-60), two B-lymphoid cell lines derived from Burkitt's lymphoma (Daudi and Raji), a B-lymphoid cell line from non-Hodgkin's lymphoma (RL), a T-lymphoid cell line from cutaneous T-lymphoma (PM-1), and a monocytic cell line from histiocytic lymphoma (U937).
Lymphoblasts (150,000 cells per microtiter well) and leukemia/lymphoma cell lines (30,000 cells per well) were incubated with 5-fold serial dilutions of compounds for 3 days. BrdU assay was performed as follows: Lymphoblasts were incubated with 5-fold serial dilutions of compounds in microtiter plates (150,000 cells per well) for 3 days. On Day 3, cells were labeled with 10 μM BrdU for 3 hrs and the amount of BrdU incorporated into cellular DNA was quantified by Enzyme-Linked Immunosorbent Assay (ELISA). Alternatively, cells were incubated with 1 mg/mL XTT reagent (sodium 3,3′-[1[(phenylamino) carbonyl]-3,4-tetrazolium]-bis(4-methoxy-6-nitro) benzene sulfonic acid hydrate) and 1% PMS (phenazine methosulfate) for 2 hrs, and color change (mitochondrial dehydrogenase reduces yellow-colored XTT to orange-colored formazan salt) was quantified. […] Assays were repeated 2-20 times, until the standard error of the mean (SEM) became smaller than 50% of the mean value.

[7] = Homo sapiens, 72 h, KG-1 (Myeloid), 3 days incubation
[8] = Homo sapiens, U-937, 72 h, U937 (Monocytic), 3 days incubation
[9] = Homo sapiens, 72 h, HL-60 (Myeloid), 3 days incubation
[10] = Homo sapiens, 72 h, PM-1 (T-lymphoid), 3 days incubation
[11] = Homo sapiens, 72 h, Molt 4 (T-lymphoid), 3 days incubation
[12] = Homo sapiens, 72 h, CEM (T-lymphoid), 3 days incubation
[13] = T-cell, 72 h, PHA-blast (human T-cells), 3 days incubation

Row | Structure (SMILES) | EC50 ([1]; Homo sapiens, T-cell, 72 h) | EC50 (Daudi (B-lymphoid); Homo sapiens, 72 h) | EC50 (Raji (B-lymphoid); Homo sapiens, 72 h) | EC50 (KG-1 (Myeloid); [7]) | EC50 (U937 (Monocytic); [8]) | EC50 (RL (B-lymphoid)) | EC50 (HL-60 (Myeloid); [9]) | EC50 (PM-1 (T-lymphoid); [10]) | EC50 (Molt 4 (T-lymphoid); [11]) | EC50 (CEM (T-lymphoid); [12]) | EC50 [6] | also measured
1 | COc1cccc2c1C(=O)c1c(O)c3c(c(O)c1C2=O)C[C@@](O)(C(=O)CO)C[C@@H]3O[C@H]1C[C@H](N)[C@H](O)[C@H](C)O1 [Doxorubicin] | 7.6 nM | 3.8 nM | 8.6 nM | 28 nM | 13 nM | 25 nM | 24 nM | 29.5 nM | 1.2 nM |  |  | 
2 | Nc1nc(F)nc2c1ncn2[C@@H]1O[C@H](CO)[C@@H](O)[C@@H]1O [Fludarabine des-phosphate] | 1100 nM |  |  | 4520 nM | 300 nM |  | 1770 nM | 12900 nM | 1550 nM | > 40000 nM |  | 
3 | CC(C)OC(=O)[C@H](C)NP(=O)(COCCn1cnc2c(NC3CC3)nc(N)nc21)Oc1ccccc1 (stereo partly drawn) [MonoAlaiPr] |  |  |  |  |  |  |  |  |  |  |  | PBMC to Plasma ratio [2]: 17
4 | CC[C@]1(O)C[C@H]2CN(CCc3c([nH]c4ccccc34)[C@@](C(=O)OC)(c3cc4c(cc3OC)N(C=O)[C@H]3[C@@](O)(C(=O)OC)[C@H](OC(C)=O)[C@]5(CC)C=CCN6CC[C@]43[C@@H]65)C2)C1 [Vincristine] |  | 0.6 nM | 2.5 nM | 3.2 nM | 2.8 nM | 1.4 nM | 2 nM | 5.3 nM | 0.4 nM | 2 nM | 0.6 to 5.3 nM | EC50 [1, 13]: 2.4 nM; EC50 [3]: 0.9 nM; EC50 [4]: 0.9 nM; EC50 [5]: 0.9 nM
5 | C[C@H](NP(=O)(COCCn1cnc2c(NC3CC3)nc(N)nc21)Oc1ccccc1)C(=O)OC(C)(C)C (stereo partly drawn) [MonoAlatBu] |  |  |  |  |  |  |  |  |  |  |  | PBMC to Plasma ratio [2]: 12
6 | Nc1nc(Cl)nc2c1ncn2[C@@H]1O[C@H](CO)[C@@H](O)[C@@H]1F [Clofarabine] | 62 nM | 221 nM | 19.4 nM | 60 nM | 37 nM | 49.5 nM | 73 nM | 145 nM | 25 nM | 418 nM | 25 to 418 nM | EC50 [3]: 126 nM; EC50 [4]: 93 nM; EC50 [5]: 146 nM
7 | OC[C@H]1O[C@@H](n2cnc3c2NC=NC[C@H]3O)C[C@@H]1O [Deoxy coformycin] | > 200000 nM |  |  | > 200000 nM | > 200000 nM |  | > 200000 nM |  | > 200000 nM |  | > 200000 nM | 
8 | CC(C)OC(=O)[C@H](C)NP(=O)(COCCn1cnc2c(NC3CC3)nc(N)nc21)N[C@@H](C)C(=O)OC(C)C [BisAlaiPr] |  |  |  |  |  |  |  |  |  |  |  | PBMC to Plasma ratio [2]: 1.2
9 | C[C@H](NP(=O)(COCCn1cnc2c(NC3CC3)nc(N)nc21)Oc1ccccc1)C(=O)OC(C)(C)C (single isomer, unassigned) [MonoAlatBu(A)] |  |  |  |  |  |  |  |  |  |  |  | PBMC to Plasma ratio [2]: 19
10 | Nc1nc(N)c2ncn(CCOCP(=O)(O)O)c2n1 [PMEDAP, 9-(2-phosphonylmethoxyethyl)-2,6-diaminopurine] |  | 14000 nM | 24900 nM | 7630 nM | 24400 nM |  | 21700 nM | 22700 nM | 27900 nM | 19900 nM |  | EC50 [1, 13]: 8950 nM
11 | Nc1nc(Cl)nc2c1ncn2[C@H]1C[C@H](O)[C@@H](CO)O1 [Cladribine] | 296 nM | 525 nM | 12 nM | 89 nM | 20 nM | 4 nM | 50 nM | 40 nM | 74 nM | 1170 nM |  | 
12 | Nc1ccn([C@@H]2O[C@H](CO)[C@@H](O)C2(F)F)c(=O)n1 [Gemcitabine] |  | 6 nM | 3.4 nM | 5.7 nM | 31 nM | 18 nM | 8.6 nM | 16 nM | 8.5 nM | 21 nM | 3.4 to 18 nM | EC50 [1, 13]: 9.6 nM
13 | Nc1ccn([C@@H]2O[C@H](CO)[C@@H](O)[C@@H]2O)c(=O)n1 [Ara-C, Cytarabine] | 1820 nM | 209 nM | 23 nM | 56 nM | 38 nM | 610 nM | 212 nM | 194 nM | 23 nM | 143 nM | 23 to 1820 nM | 
14 | Nc1ncn([C@H]2C[C@H](O)[C@@H](CO)O2)c(=O)n1 [Decitabine] | 204 nM |  |  |  |  |  |  |  |  |  |  | EC50 (KG-1 (Myeloid); Homo sapiens, KG-1, 72 h): 83 nM; EC50 (U937 (Monocytic); Homo sapiens, U-937, 72 h): 77 nM; EC50 (HL-60 (Myeloid); Homo sapiens, HL-60, 72 h): 3830 nM; EC50 (PM-1 (T-lymphoid); Homo sapiens, T-lymphoid, 72 h): > 20000 nM; EC50 (CEM (T-lymphoid); Homo sapiens, T-lymphoid, 72 h): 3000 nM; EC50 (Molt 4 (T-lymphoid); Homo sapiens, MOLT-4, 72 h): 580 nM
15 | Nc1nc2c(ncn2CCOCP(=O)(O)O)c(=O)[nH]1 [PMEG, 9-(2-phosphonylmethoxyethyl)guanine] |  |  |  |  |  |  |  |  |  |  |  | EC50 ([1]; PHA-blast (human T-cells), 3 days incubation): 1680 nM; EC50 (Daudi (B-lymphoid)): 994 nM; EC50 (Raji (B-lymphoid)): 2720 nM; EC50 (KG-1 (Myeloid); KG-1 (Myeloid), 3 days incubation): 2930 nM; EC50 (U937 (Monocytic); U937 (Monocytic), 3 days incubation): 4010 nM; EC50 (HL-60 (Myeloid); HL-60 (Myeloid), 3 days incubation): 3920 nM; EC50 (PM-1 (T-lymphoid); PM-1 (T-lymphoid), 3 days incubation): 4020 nM; EC50 (CEM (T-lymphoid); CEM (T-lymphoid), 3 days incubation): 5200 nM; EC50 (Molt 4 (T-lymphoid); Molt 4 (T-lymphoid), 3 days incubation): 1740 nM
